Like-named read-outs stand apart in the source and are kept apart here.
Tests used:
Test in all cases: 3D clonogenic assay (PDX)
Assay type in all cases: cell-based, human
OVXF 1544 = conditions: OVXF 1544, Ovarian; for IC50: Homo sapiens
Description: (§1) The anti-tumor efficacy of S1 in the patient-derived tumor xenograft (PDX) tumor panel was assessed, where the efficacy of S1 in PDX tumor panel in the 96-well format, in 10 concentrations in duplicate was performed. Colony formation of tumor cell suspensions in a soft-agar matrix was observed and quantified. The output is IC50 values and dose response-relationships based on number of colonies in control and treatment wells, as identified by an automated image analysis algorithm. Stock solution of S1 was prepared in 100% DMSO at 10 mM concentration (stored at -20°C) and reused for each experiment. Compound final test concentrations: Dilution series ½ i.e.: 50µM, 15, 5, 1.5, 0.5, 0.15, 0.05, 0.015, 0.005 and 0.0015.
(§2) Tumor xenografts (also referred to as patient-derived tumor xenografts) were passaged as subcutaneous xenografts in NMRI nu/nu mice. Tumor xenograft were removed from mice under sterile conditions, mechanically disaggregated and subsequently incubated with an enzyme cocktail consisting of collagenase type IV (41 U/mL), DNase I (125 U/mL), hyaluronidase type III (100 U/mL) and dispase II (1.0 U/mL) in RPMI 1640 medium at 37°C for 60 - 120 minutes. Cells were passed through sieves of 100 µm and 40 µm mesh size and washed with RPMI 1640 medium. The percentage of viable cells was determined in a Neubauer-hemocytometer using trypan blue exclusion. Aliquots of the cells were frozen down, and stored in liquid nitrogen.
(§3) The clonogenic assay test was carried out in 96 well plate format. For each test a frozen aliquot of tumor cells prepared from tumor xenografts was thawed and assay plates were prepared as follows: each test well contained 3 layers of equal volume, 2 layers of semi-solid medium (bottom and top layer), and one layer of medium supernatant, with or without test compound. The bottom layer consisted of 0.05 mL/well Iscove's Modified Dulbecco's Medium (Invitrogen), supplemented with 20% (v/v) fetal calf serum (Sigma), 0.01% (w/v) gentamicin (Invitrogen) and 0.75% (w/v) agar (BD Biosciences). Tumor cells were added to 0.05 mL of the same culture medium supplemented with 0.4% (w/v) agar and plated onto the bottom layer. After 24 h, test compounds were added after serial dilution in DMSO and transfer in cell culture medium, and left on the cells for the duration of the experiment (continuous exposure, 0.05 mL drug overlay). Every dish included six untreated control wells and drug-treated groups in duplicate at 10 concentrations. Cultures were incubated at 37 °C and 7.5% CO2 in a humidified atmosphere for 8 to 13 days and monitored closely for colony growth using an inverted microscope. Within this period, ex vivo tumor growth lead to the formation of colonies with a diameter of >50 µm. At the time of maximum colony formation, counts were performed with an automatic image analysis system. 24 h prior to evaluation, vital colonies were stained with a sterile aqueous solution of 2-(4-iodophenyl)-3-(4-nitrophenyl)-5-phenyltetrazolium chloride (1 mg/mL, 100 µL/well). Sigmoidal concentration-response curves were fitted to the data points obtained for each tumor model using 4 parameter non-linear curve fit (Oncotest Warehouse Software). IC50 values are reported as relative IC50 values, being the concentration of test compound that give a response (inhibition of colony formation/viability) half way between the top and bottom plateau of the sigmoidal concentration-response curve (inflection point of the curve), or as absolute IC50 values, being the concentration of test compound at the intersection of the concentration-response curves with T/C = 50%. For calculation of mean IC50 values the geometric mean was used. Results are presented as mean graph plots or heat maps (individual IC50 values relative to the geometric mean IC50 value) over all cell lines as tested.

LXFA 629 = conditions: LXFA 629, Lung Adeno; for IC50: Homo sapiens
Description: as §1, §2, §3

CXF 975 = conditions: CXF 975, Colorectal; for IC50: Homo sapiens
Description: as §1, §2, §3

LXFA 297 = conditions: LXFA 297, Lung Adeno; for IC50: Homo sapiens
Description: as §1, §2, §3

HNXF 1853 = conditions: HNXF 1853, Head and Neck; for IC50: Homo sapiens
Description: as §1, §2, §3

MAXF 713 = conditions: MAXF 713, Breast; for IC50: Homo sapiens
Description: as §1, §2, §3

RXF 1220 = conditions: RXF 1220, Renal; for IC50: Homo sapiens
Description: as §1, §2, §3

MEXF 276 = conditions: MEXF 276, Melanoma; for IC50: Homo sapiens
Description: as §1, §2, §3

CXF 280 = conditions: CXF 280, Colorectal; for IC50: Homo sapiens
Description: as §1, §2, §3

GXA 3040 = conditions: GXA 3040, Asian Gastric; for IC50: Homo sapiens
Description: as §1, §2, §3

CXF 676 = conditions: CXF 676, Colorectal; for IC50: Homo sapiens
Description: as §1, §2, §3

OVXF 899 = conditions: OVXF 899, Ovarian; for IC50: Homo sapiens
Description: as §1, §2, §3

IC50 (OVXF 1544; read-out: abs. IC50): 13.5 µM
IC50 (OVXF 1544; read-out: rel. IC50): 12.8 µM
IC50 (LXFA 629; read-out: abs. IC50): 9.09 µM
IC50 (LXFA 629; read-out: rel. IC50): 8.85 µM
IC50 (CXF 975; read-out: abs. IC50): 8.75 µM
IC50 (CXF 975; read-out: rel. IC50): 8.62 µM
IC50 (LXFA 297; read-out: abs. IC50): 8.58 µM
IC50 (LXFA 297; read-out: rel. IC50): 8.45 µM
IC50 (HNXF 1853; read-out: abs. IC50): 50 µM
IC50 (HNXF 1853; read-out: rel. IC50): 8.77 µM
IC50 (MAXF 713; read-out: abs. IC50): 9.16 µM
IC50 (MAXF 713; read-out: rel. IC50): 8.6 µM
IC50 (RXF 1220; read-out: abs. IC50): 43.3 µM
IC50 (RXF 1220; read-out: rel. IC50): 43.4 µM
IC50 (MEXF 276; read-out: abs. IC50): 4.73 µM
IC50 (MEXF 276; read-out: rel. IC50): 4.65 µM
IC50 (CXF 280; read-out: abs. IC50): 8.65 µM
IC50 (CXF 280; read-out: rel. IC50): 8.62 µM
IC50 (GXA 3040; read-out: abs. IC50): 8.84 µM
IC50 (GXA 3040; read-out: rel. IC50): 8.79 µM
IC50 (CXF 676; read-out: abs. IC50): 8.92 µM
IC50 (CXF 676; read-out: rel. IC50): 8.78 µM
IC50 (OVXF 899; read-out: abs. IC50): 6.38 µM
IC50 (OVXF 899; read-out: rel. IC50): 6.16 µM
SMILES: O[C@H](c1cc(-c2ccc(Cl)cc2)nc2ccccc12)[C@@H]1CCCCN1 [S1, (R)-(2-(4-chlorophenyl)quinolin-4-yl)((S)-piperidin-2-yl)methanol]
b (bottom plateau of concentration-effect curve) (OVXF 1544): 22
t (top plateau of concentration-effect curve) (OVXF 1544): 107
b (bottom plateau of concentration-effect curve) (LXFA 629): 26
t (top plateau of concentration-effect curve) (LXFA 629): 108
b (bottom plateau of concentration-effect curve) (CXF 975): 19
t (top plateau of concentration-effect curve) (CXF 975): 105
b (bottom plateau of concentration-effect curve) (LXFA 297): 24
t (top plateau of concentration-effect curve) (LXFA 297): 100
b (bottom plateau of concentration-effect curve) (HNXF 1853): 50
t (top plateau of concentration-effect curve) (HNXF 1853): 106
b (bottom plateau of concentration-effect curve) (MAXF 713): 43
t (top plateau of concentration-effect curve) (MAXF 713): 108
b (bottom plateau of concentration-effect curve) (RXF 1220): 0
t (top plateau of concentration-effect curve) (RXF 1220): 99
b (bottom plateau of concentration-effect curve) (MEXF 276): 15
t (top plateau of concentration-effect curve) (MEXF 276): 95
b (bottom plateau of concentration-effect curve) (CXF 280): 5
t (top plateau of concentration-effect curve) (CXF 280): 101
b (bottom plateau of concentration-effect curve) (GXA 3040): 13
t (top plateau of concentration-effect curve) (GXA 3040): 94
b (bottom plateau of concentration-effect curve) (CXF 676): 19
t (top plateau of concentration-effect curve) (CXF 676): 105
b (bottom plateau of concentration-effect curve) (OVXF 899): 18
t (top plateau of concentration-effect curve) (OVXF 899): 100

Source: patent EP3064205A1, “Therapeutic use of isomeric forms of 2-(4-chlorophenyl)quinolin-4-yl)(piperidin-2-yl)methanol” (Glionova AB, priority 2015, dated 2016)
